pIC50: −log10 of the molar value.
Columns and labels:
SARS-CoV-2 3CLpro = SARS-CoV-2 3CLpro (Severe acute respiratory syndrome coronavirus 2, UniProt P0DTD1); test: FRET based protease assay, SARS-CoV-2 3CL; format: biochemical, SARS-CoV-2 (strain BetaCoV/Wuhan/WIV04/2019)
MERS-CoV 3CLpro = MERS-CoV 3CLpro (Middle East respiratory syndrome-related coronavirus, UniProt K9N638); test: biochemical; settings: MERS IC50, 75 nM MERS-CoV 3CLpro, 6 μM peptide 1 substrate, 25° C., 1.5 hrs, pH 7.5
Chain of MERS-CoV 3CLpro (K9N638 3248-3553 limits assumed): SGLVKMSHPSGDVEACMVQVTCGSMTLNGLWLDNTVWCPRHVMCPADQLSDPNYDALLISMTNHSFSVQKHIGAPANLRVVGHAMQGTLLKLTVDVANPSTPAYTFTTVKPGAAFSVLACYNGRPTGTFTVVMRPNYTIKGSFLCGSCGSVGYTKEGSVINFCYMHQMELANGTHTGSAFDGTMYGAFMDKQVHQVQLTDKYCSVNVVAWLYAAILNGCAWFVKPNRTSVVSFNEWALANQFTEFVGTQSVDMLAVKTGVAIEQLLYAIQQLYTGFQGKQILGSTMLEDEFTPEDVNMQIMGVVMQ

Compound | pIC50 (SARS-CoV-2 3CLpro) | pIC50 (MERS-CoV 3CLpro)
CC(C)(C)OC(=O)N[C@H]1CCCC[C@H]2CNC(=O)[C@H]2C[C@@H](C#N)NC(=O)[C@@H]2[C@H]3CC[C@H](CC3)N2C1=O [Example 111] | 6.00 to 7.00 | 6.00 to 7.00
CC1(C)[C@@H]2[C@H]3C(=O)N[C@H](C#N)C[C@@H]4C(=O)NC[C@@H]4CCCC[C@H](NC(=O)CC4CC(F)(F)C4)C(=O)N3C[C@@H]21 [Example 89] | > 7.00 | 6.00 to 7.00
CC1(C)[C@@H]2[C@H]3C(=O)N[C@H](C#N)C[C@@H]4C(=O)NCC[C@@H]4CCCC[C@H](NC(=O)C(F)(F)F)C(=O)N3C[C@@H]21 [Example 104] | > 7.00 | > 7.00
CC1(C)[C@@H]2[C@H]3C(=O)N[C@H](C#N)C[C@@H]4C(=O)NC[C@@H]4CCCC[C@H](Nc4cc(C(F)(F)F)ncn4)C(=O)N3C[C@@H]21 [Example 163] | > 7.00 | 6.00 to 7.00
CC(C)(C)C[C@@H]1NC(=O)[C@@H](NC(=O)C(C)(C)C)CCCC[C@H]2CNC(=O)[C@H]2C[C@@H](C#N)NC1=O [Example 53] | > 7.00 | 6.00 to 7.00
CC(C)(C)C(=O)N[C@H]1CC/C=C/[C@H]2CNC(=O)[C@H]2C[C@@H](C#N)NC(=O)[C@@H]2[C@H]3CCC[C@H]3CN2C1=O [Example 86] | > 7.00 | 6.00 to 7.00
CC1(C)[C@@H]2[C@H]3C(=O)N[C@H](C#N)C[C@@H]4C(=O)NCC[C@@H]4CCCC[C@H](NC(=O)c4ccc(F)cc4F)C(=O)N3C[C@@H]21 [Example 129] | > 7.00 | > 7.00
CC(C)C[C@@H]1NC(=O)[C@H](Cc2ccccc2)CCC[C@@H]2CNC(=O)[C@@H]2C[C@@H](C=O)NC1=O [Example 11] | 4.70 to 6.00 | 4.70 to 6.00
CC(C)C[C@@H]1NC(=O)[C@@H](NC(=O)C(C)(C)C)CCCC[C@H]2CNC(=O)[C@@H]2C[C@@H](C#N)NC1=O [Example 54] | 6.00 to 7.00 | 6.00 to 7.00
CC(C)C[C@@H]1NC(=O)[C@@H](Cc2ccc(F)cc2)CCCC[C@H]2CNC(=O)[C@H]2C[C@@H](C#N)NC1=O [Example 43] | 4.70 to 6.00 | 4.70 to 6.00
CC1(C)[C@@H]2[C@H]3C(=O)N[C@H](C#N)C[C@@H]4C(=O)NC[C@@H]4CCCC[C@H](NC(=O)c4ccc(F)cc4F)C(=O)N3C[C@@H]21 [Example 103] | > 7.00 | > 7.00
CC(C)C[C@@H]1NC(=O)[C@@H](NC(=O)OC(C)(C)C)CCC[C@@H]2CNC(=O)[C@@H]2C[C@@H](C=O)NC1=O [Example 16] | 6.00 to 7.00 | 4.70 to 6.00
CC(C)(C)OC(=O)N[C@H]1CC/C=C/[C@H]2CNC(=O)[C@H]2C[C@@H](C#N)NC(=O)[C@@H]2[C@@H]3[C@H](CN2C1=O)C3(C)C [Example 92] | > 7.00 | > 7.00
CC(C)C[C@@H]1NC(=O)[C@@H](Cc2ccc(F)cc2)CCCC[C@@H]2CNC(=O)[C@@H]2C[C@@H](C#N)NC1=O [Example 42] | 4.70 to 6.00 | 4.70 to 6.00
CC(C)(C)C(=O)N[C@H]1CCCC[C@H]2CNC(=O)[C@H]2C[C@@H](C#N)NC(=O)[C@H](C2CCCC2)NC1=O [Example 80] | 6.00 to 7.00 | 6.00 to 7.00
CC1(C)[C@@H]2[C@H]3C(=O)N[C@H](C#N)C[C@@H]4C(=O)NC[C@@H]4CCCC[C@H](NC(=O)c4ccc(F)cc4)C(=O)N3C[C@@H]21 [Example 82] | > 7.00 | > 7.00
CC1(C)[C@@H]2[C@H]3C(=O)N[C@H](C#N)C[C@@H]4C(=O)NC[C@@H]4CCCC[C@H](NS(=O)(=O)C(F)(F)F)C(=O)N3C[C@@H]21 [Example 158] | > 7.00 | > 7.00
CC(C)C[C@@H]1NC(=O)[C@@H](C2CCCC2)CCC[C@H]2CNC(=O)[C@H]2C[C@@H](C=O)NC1=O [Example 13] | 4.70 to 6.00 | 4.70 to 6.00
CC(C)(C)OC(=O)N[C@H]1CCCC[C@H]2CNC(=O)[C@H]2C[C@@H](C#N)NC(=O)[C@@H]2CC3(CCN2C1=O)CC3 [Example 132] | > 7.00 | 6.00 to 7.00

Compound | pIC50 (SARS-CoV-2 3CLpro) | pIC50 (MERS-CoV 3CLpro)
CC(C)C[C@@H]1NC(=O)CCCC[C@H]2CNC(=O)[C@H]2C[C@@H](C=O)NC1=O [Example 2] | 4.70 to 6.00 | < 4.70
CC(C)(C)C(=O)N[C@H]1CCCC[C@H]2CCNC(=O)[C@@H]2C[C@@H](C#N)NC(=O)[C@@H]2[C@@H]3[C@H](CN2C1=O)C3(C)C [Example 65] | > 7.00 | 6.00 to 7.00
CC(C)C[C@@H]1NC(=O)C(OC2CCCCC2)CCC[C@H]2CNC(=O)[C@@H]2C[C@@H](C#N)NC1=O (stereo partly shown) [Example 23] | < 4.70 | < 4.70
CC(C)(C)C(=O)N[C@H]1CCC[C@H]2CCNC(=O)[C@@H]2C[C@@H](C#N)NC(=O)[C@@H]2[C@@H]3[C@H](CN2C1=O)C3(C)C [Example 66] | > 7.00 | 6.00 to 7.00
CC(C)(C)OC(=O)N[C@H]1CCCC[C@H]2CNC(=O)[C@H]2C[C@@H](C#N)NC(=O)[C@@H]2CC(F)(F)CN2C1=O [Example 131] | 6.00 to 7.00 | 6.00 to 7.00
CO[C@@H]1C[C@H]2C(=O)N[C@H](C#N)C[C@@H]3C(=O)NC[C@@H]3CCCC[C@H](NC(=O)OC(C)(C)C)C(=O)N2C1 [Example 147] | > 7.00 | 6.00 to 7.00
CC(C)C[C@@H]1NC(=O)CCCCC[C@H]2CCNC(=O)[C@@H]2C[C@@H](C=O)NC1=O [Example 34] | 6.00 to 7.00 | 4.70 to 6.00
CC(C)C[C@@H]1NC(=O)[C@H](Cc2ccccc2)CCC[C@H]2CNC(=O)[C@@H]2C[C@@H](C=O)NC1=O [Example 21] | > 7.00 | 6.00 to 7.00
CC(C)(C)OC(=O)N[C@H]1CC/C=C/[C@H]2CCNC(=O)[C@H]2C[C@@H](C#N)NC(=O)[C@@H]2[C@H]3CCC[C@H]3CN2C1=O [Example 99] | 6.00 to 7.00 | 4.70 to 6.00
N#C[C@@H]1C[C@@H]2C(=O)NC[C@@H]2CCCC[C@H](NC(=O)C(F)(F)F)C(=O)N2C[C@@H]3CCC[C@@H]3[C@H]2C(=O)N1 [Example 88] | > 7.00 | 6.00 to 7.00
CC1(C)[C@@H]2[C@H]3C(=O)N[C@H](C#N)C[C@@H]4C(=O)NC[C@@H]4CCCC[C@H](Nc4nccc(C(F)(F)F)n4)C(=O)N3C[C@@H]21 [Example 162] | > 7.00 | 6.00 to 7.00
CC(C)C[C@@H]1NC(=O)CCCC[C@@H]2CNC(=O)[C@@H]2C[C@@H](C=O)NC1=O [Example 1] | 4.70 to 6.00 | < 4.70
CC1(C)[C@@H]2[C@H]3C(=O)N[C@H](C#N)C[C@@H]4C(=O)NC[C@@H]4CCCC[C@H](NC(=O)C45CC(C(F)(F)F)(C4)C5)C(=O)N3C[C@@H]21 [Example 119] | > 7.00 | > 7.00
N#C[C@@H]1C[C@@H]2C(=O)NCC[C@@H]2CCCC[C@H](NC(=O)OC2CCCC2)C(=O)N2C[C@@H]3CCC[C@@H]3[C@H]2C(=O)N1 [Example 93] | > 7.00 | 6.00 to 7.00
CC(C)C[C@@H]1NC(=O)[C@@H](Cc2ccccc2)CCC[C@H]2CNC(=O)[C@@H]2C[C@@H](C=O)NC1=O [Example 10] |  | 4.70 to 6.00
CC(C)C[C@@H]1NC(=O)[C@@H](C2CCCC2)CCCC[C@H]2CNC(=O)[C@H]2C[C@@H](C#N)NC1=O [Example 41] | < 4.70 | 
CC(C)C[C@@H]1NC(=O)[C@@H](Cc2ccccc2)CCCC[C@@H]2CNC(=O)[C@@H]2C[C@@H](C=O)NC1=O [Example 35] | 4.70 to 6.00 | 
CC(C)(C)OC(=O)N[C@H]1CCCC[C@H]2CCNC(=O)[C@H]2C[C@@H](C#N)NC(=O)[C@@H]2[C@@H]3[C@H](CN2C1=O)C3(C)C [Example 96] |  | > 7.00
